Literature values as cited in publication PMC3048208 (British Journal of Cancer, 2011).
Structures can show the parent of a compound that is named as a salt.

How the values were obtained:
[1] = tested on: xenograft models of colon (HCT-116), ovarian (A2780) and prostate (PC3, DU145) carcinomas; set-up: method as in Novotny-Diermayr et al, 2010; conditions: ref Novotny-Diermayr et al, 2010, cited from earlier work
class I, II and IV HDACs = conditions: in vitro; ref Novotny-Diermayr et al, 2010; cited from earlier work

CCCCc1nc2cc(/C=C/C(=O)NO)ccc2n1CCN(CC)CC [SB939, 3-[2-butyl-1-(2-diethylaminoethyl)-1H-benzoimidazol-5-yl]-N-hydroxyacrylami-hydrochloride]
Anti-tumour efficacy ([1]; HCT-116, A2780, PC3, DU145 xenografts, MV4-11, HL-60 and B cell lymphoma murine models): dose-dependent anti-tumour efficacy | Drug accumulation and inhibition of histone deacetylation in tumour tissues compared with vorinostat ([1]; preclinical experiments): prolonged drug accumulation and more sustained inhibition of histone deacetylation | Selectivity for class I, II and IV HDACs compared with class III HDACs (class I, II and IV HDACs): > 1000 fold
